Legend:
[1] = tested on: antibodies in sera from SARS patients (sera 1a, 1b, 2, 6, 37, 62, London, SARS-yellow, SARS-green); type: binding, human; design: Binding of serum 6 to linear peptides of protein X1 of SARS-CoV Urbani / Binding of serum 37 to linear peptides of protein X1 of SARS-CoV Urbani / Binding of serum 6 to looped/cyclic peptide (PEPSCAN-ELISA) / Binding of serum 37 to looped/cyclic peptide (PEPSCAN-ELISA) / Binding of serum 37 to looped/cyclic peptides of protein X1 of SARS-CoV Urbani / Binding of serum 6 to linear peptides of protein X2 / Binding of serum 37 to linear peptides of protein X2 / Binding of serum 37 to looped/cyclic peptides of protein X2 of SARS-CoV Urbani / Binding of serum 6 to linear peptides of protein M of SARS-CoV Urbani / Binding of serum 37 to linear peptides of protein M of SARS-CoV Urbani / Binding of serum 6 to looped/cyclic peptides of protein M of SARS-CoV Urbani / Binding of serum 37 to looped/cyclic peptides of protein M of SARS-CoV Urbani / Binding of serum 6 to linear peptides of protein X3 of SARS-CoV Urbani / Binding of serum 37 to linear peptides of protein X3 of SARS-CoV Urbani / Binding of serum 37 to looped/cyclic peptides of protein X3 of SARS-CoV Urbani / Binding of serum 6 to linear peptides of protein X4 of SARS-CoV Urbani / Binding of serum 37 to linear peptides of protein X4 of SARS-CoV Urbani / Binding of serum 37 to looped/cyclic peptides of protein X4 of SARS-CoV Urbani / Binding of serum 6 to linear peptides of protein X5 of SARS-CoV Urbani / Binding of serum 37 to linear peptides of protein X5 of SARS-CoV Urbani / Binding of serum 37 to looped/cyclic peptides of protein X5 of SARS-CoV Urbani / Binding of serum 6 to linear peptides of protein N of SARS-CoV Urbani / Binding of serum 37 to linear peptides of protein N of SARS-CoV Urbani / Binding of serum 6 to linear peptide (PEPSCAN-ELISA) / Binding of serum 1a to looped/cyclic peptides of protein N of SARS-CoV Urbani / Binding of serum 1b to looped/cyclic peptides of protein N of SARS-CoV Urbani / Binding of serum 2 to looped/cyclic peptides of protein N of SARS-CoV Urbani / Binding of serum 6 to looped/cyclic peptides of protein N of SARS-CoV Urbani / Binding of serum 37 to looped/cyclic peptides of protein N of SARS-CoV Urbani / Binding of serum 62 to looped/cyclic peptides of protein N of SARS-CoV Urbani / Binding of serum London to looped/cyclic peptides of protein N of SARS-CoV Urbani / Binding of serum SARS-green to looped/cyclic peptides of protein N of SARS-CoV Urbani: unit not given here
[2] = tested on: control sera (pooled serum of ten healthy LUMC hospital workers; commercial negative donor pooled serum from the Dutch bloodbank); type: binding, human; design: Binding of Control serum LUMC to linear peptides / Binding of Control serum Blood-bank to linear peptides / Binding of Control serum LUMC to looped peptides / Binding of Control Serum Blood-Bank to Looped peptides / Binding of Control serum LUMC to linear peptides of the protein M of SARS-CoV Urbani / Binding of Control serum Blood-bank to linear peptides of the protein M of SARS-CoV Urbani / Binding of Control serum LUMC to looped peptides of the protein M of SARS-CoV Urbani / Binding of Control Serum Blood-Bank to Looped peptides of the protein M of SARS-CoV Urbani: unit not given here
[3] = tested on: rabbit serum obtained by immunizing a rabbit with the SARS-CoV strain Frankfurt 1; type: binding; design: Binding of a rabbit serum to linear peptides / Binding of a rabbit serum to looped peptides / Rabbit serum linear peptides / Rabbit serum looped peptides / Binding of a rabbit serum to linear peptides of protein N of SARS-CoV Urbani (Rabbit serum linear peptides) / Binding of a rabbit serum to looped/cyclic peptides of protein N of SARS-CoV Urbani (Rabbit serum looped peptides): unit not given here
[4] = tested on: recombinant human anti-SARS-CoV antibody 03-018; type: binding; design: Binding of antibody 03-018 to linear peptides of the N protein of SARS-CoV Urbani / Binding of antibody 03-018 to looped/cyclic peptides of the N protein of SARS-CoV Urbani: unit not given here

Sequence	Binding of serum 1a to looped/cyclic peptides of protein N of SARS-CoV Urbani [1]	Binding of serum 1b to looped/cyclic peptides of protein N of SARS-CoV Urbani [1]	Binding of serum 2 to looped/cyclic peptides of protein N of SARS-CoV Urbani [1]	Binding of serum 6 to looped/cyclic peptides of protein N of SARS-CoV Urbani [1]	Binding of serum 37 to looped/cyclic peptides of protein N of SARS-CoV Urbani [1]	Binding of serum 62 to looped/cyclic peptides of protein N of SARS-CoV Urbani [1]	Binding of serum London to looped/cyclic peptides of protein N of SARS-CoV Urbani [1]	Binding of serum SARS-green to looped/cyclic peptides of protein N of SARS-CoV Urbani [1]	Binding of serum SARS-yellow to looped/cyclic peptides of protein N of SARS-CoV Urbani [1]	Binding of Control Serum Blood-Bank to Looped peptides [2]	Binding of Control serum Blood-bank to linear peptides [2]	Binding of Control serum LUMC to linear peptides [2]	Binding of Control serum LUMC to looped peptides [2]	Binding of antibody 03-018 to linear peptides of the N protein of SARS-CoV Urbani [4]	Binding of antibody 03-018 to looped/cyclic peptides of the N protein of SARS-CoV Urbani [4]	Binding of serum 1a to linear peptides of protein N of SARS-CoV Urbani [1]	Binding of serum 1b to linear peptides of protein N of SARS-CoV Urbani [1]	Binding of serum 2 to linear peptides of protein N of SARS-CoV Urbani [1]	Binding of serum 6 to linear peptides of protein N of SARS-CoV Urbani [1]	Binding of serum 37 to linear peptides of protein N of SARS-CoV Urbani [1]	further results
RNSTPGSSRGNSPAR	0.4	0.3	0.4	0.3	0.5	0.5	0.5	0.1	0.5	0.6	0.9	0.8	0.7	0.1	0.2	–	–	–	–	–	Binding of serum 1a to linear peptide (PEPSCAN-ELISA) [1]: 0.6; Binding of serum 1b to linear peptide (PEPSCAN-ELISA) [1]: 0.3; Binding of serum 2 to linear peptide (PEPSCAN-ELISA) [1]: 0.3; Binding of serum 6 to linear peptide (PEPSCAN-ELISA) [1]: 0.2; Binding of serum 37 to linear peptide (PEPSCAN-ELISA) [1]: 0.7; Binding of serum 62 to linear peptide (PEPSCAN-ELISA) [1]: 0.7; Binding of serum London to linear peptide (PEPSCAN-ELISA) [1]: 0.4; Binding of serum SARS-green to linear peptide (PEPSCAN-ELISA) [1]: 0.4; Binding of serum SARS-yellow to linear peptide (PEPSCAN-ELISA) [1]: 0.7; Recognition of the peptide by the rabbit serum [3]: recognized
RPKQRRPQGLPNNTA	0.3	0.1	0.3	0.3	0.5	0.5	0.4	0.2	0.3	0.4	0.8	0.7	0.5	0.1	0.2	0.3	0.1	0.3	0.2	0.7	Binding of serum 62 to linear peptides of protein N of SARS-CoV Urbani [1]: 0.6; Binding of serum London to linear peptides of protein N of SARS-CoV Urbani [1]: 0.5; Binding of serum SARS-green to linear peptides of protein N of SARS-CoV Urbani [1]: 0.5; Binding of serum SARS-yellow to linear peptides of protein N of SARS-CoV Urbani [1]: 0.7; Binding of a rabbit serum to linear peptides of protein N of SARS-CoV Urbani (Rabbit serum linear peptides) [3]: 0.4; Binding of a rabbit serum to looped/cyclic peptides of protein N of SARS-CoV Urbani (Rabbit serum looped peptides) [3]: 0.4
RQLQNSMSGASADST	0.2	0.1	0.3	0.1	0.4	0.2	0.2	0.1	0.2	–	–	–	–	0.1	0.2	0.2	0.2	0.2	0.2	0.7	Binding of serum 62 to linear peptides of protein N of SARS-CoV Urbani [1]: 0.6; Binding of serum London to linear peptides of protein N of SARS-CoV Urbani [1]: 0.6; Binding of serum SARS-green to linear peptides of protein N of SARS-CoV Urbani [1]: 0.3; Binding of serum SARS-yellow to linear peptides of protein N of SARS-CoV Urbani [1]: 0.5; Control Serum Blood-Bank Looped peptides [2]: 0.4; Control serum Blood-bank linear peptides [2]: 0.7; Control serum LUMC linear peptides [2]: 0.6; Control serum LUMC looped peptides [2]: 0.2; Binding of a rabbit serum to linear peptides of protein N of SARS-CoV Urbani (Rabbit serum linear peptides) [3]: 0.5; Binding of a rabbit serum to looped/cyclic peptides of protein N of SARS-CoV Urbani (Rabbit serum looped peptides) [3]: 0.3
RRPQGLPNNTASWFT	0.4	0.3	0.5	0.3	0.6	0.5	0.4	0.6	0.5	0.7	0.5	0.7	0.6	0.1	0.2	0.2	0.1	0.1	0.1	0.6	Binding of serum 62 to linear peptides of protein N of SARS-CoV Urbani [1]: 0.6; Binding of serum London to linear peptides of protein N of SARS-CoV Urbani [1]: 0.4; Binding of serum SARS-green to linear peptides of protein N of SARS-CoV Urbani [1]: 0.2; Binding of serum SARS-yellow to linear peptides of protein N of SARS-CoV Urbani [1]: 0.6; Binding of a rabbit serum to linear peptides of protein N of SARS-CoV Urbani (Rabbit serum linear peptides) [3]: 0.1; Binding of a rabbit serum to looped/cyclic peptides of protein N of SARS-CoV Urbani (Rabbit serum looped peptides) [3]: 0.4

Reference: patent US20070128217A1 (priority 2003, published 2007)
